Data from patent US20230134714A1, “COMPOSITIONS COMPRISING BACTERIAL STRAINS” (4D PHARMA RESEARCH LIMITED, priority 2018, published 2023).
Counter-ions that a name gives are not always drawn.

Key:
[1] = test system: graft versus host disease (GVHD) induced in Balb/C mice; assay: GVHD model (TBI plus allogeneic cell transfer); type: in vivo
Source text: All animals were weighed and randomized by weight into treatment groups prior to study start. Prior to GVHD induction on Days −1 and 0, all animals were pre-treated (PO) with PBS (Groups 1-4), NCIMB 43171 (Group 5), or Butyrate salt control (Group 6) daily starting on Day −14. Butyrate was used as a positive control as butyrate deficit has been identified in the gut of GVHD patients.
GVHD was induced in mice using a single acute dose of 8 Gy of total body irradiation (TBI) on Day −1. On Day 0, these recipient mice were given an intravenous injection of a combination of T cell depleted bone marrow cells and splenic cells from donor C57Bl/6 mice in PBS. Bone marrow cells were isolated using standard flushing practices, and were T cell depleted using the cell surface T cell antigen CD3, with a CD3-biotin kit (Miltenyi Biotec catalog 130-094-973). Splenocytes were isolated using Miltenyi GentleMACS Dissociators. Animals in Group 1 served as naïve controls and received neither TBI nor cell transfer. […] Animals in Group 3 served as syngeneic adoptive transfer controls; these animals received 8 Gy of TBI on Day −1, and an intravenous injection of a combination of T cell depleted bone marrow cells and splenic cells from donor Balb/C mice in sterile PBS.
Daily test article dosing continued for the duration of the study (Days −14 to 30). Animal survival was recorded daily, as an indication of GVHD severity. Animals were also weighed, observed, and given a clinical GVHD score daily for the duration of the study following GVHD induction. The GVHD score was assessed by a standard scoring system based on five criteria (Table 21): percentage of weight change, posture (hunching), activity, fur texture, and skin integrity (maximum score=10).
On Day 29, all surviving animals underwent endoscopy to monitor colonic inflammation.
On Day 30, blood was collected by RO bleed; blood (approximately 150-300 μL) was collected into two tubes—approximately two third of the blood was collected into K2EDTA tubes, and the remaining one third was collected into lithium-heparin tubes. Both samples were centrifuged and processed for plasma, and plasma tubes were clearly labeled to indicate the anti-coagulant used. For the K2EDTA sample, plasma was aliquoted as follows: 25 μL (for use in downstream citrulline assay), and remainder. All plasma was frozen at −80° C. All K2EDTA samples were assessed for citrulline by ELISA upon study completion

[2] = test system: HDAC; assay: Global HDAC activity analysis in HT-29 cells; type: cell-based; conditions: for inhibition of total HDAC activity: whole HT-29 cells or cell lysate not specified
Description: Whole cells and cell free supernatants of stationary phase 43042 cultures were isolated by centrifugation and filtering in a 0.22 uM filter. HT-29 cells were used 3 days' post confluence and stepped down in 1 mL DTS 24 hours prior to commencement of the experiment. The HT-29 cells were challenged with 10% cell free supernatant diluted in DTS and this was left to incubate for 48 hours. […] proteins were then extracted using the Sigma Aldrich […] extraction kit and samples were snap frozen prior to HDAC activity measurement. HDAC activity kit was assessed fluorometrically using the Sigma Aldrich (UK) kit.
(§1) To investigate which metabolites were responsible for the strain-induced HDAC inhibition, different concentrations of hexanoic acid, valeric acid and sodium butyrate were measured for their HDAC inhibition on whole HT-29 cells and on HT-29 cell lysate.

[3] = test system: HDAC; assay: HDAC inhibition on HT-29 cell lysate; type: biochemical; conditions: different concentrations
Description: as §1

[4] = compared with Group 4 (PBS-TBI+allogeneic transfer)

CCCC(=O)O [Butyrate salt control]
mean body weight over the course of the study ([1]; compared to Group 1 (PBS-naive)): significantly decreased | mean body weight over the course of the study ([1]; compared to Group 3 (PBS-TBI+syngeneic transfer)): significantly decreased | mean body weight over the course of the study [1, 4]: No significant differences | mean colitis severity scores ([1]; endoscopy Day 29, compared to naive mice (Group 1)): increased

CCCCC(=O)O [Valeric acid, valeric acid]
inhibition of total HDAC activity [2]: inhibited total HDAC activity

CCCCCC(=O)O [hexanoic acid]
inhibition of total HDAC activity [2]: did show significant inhibitory activity

CCCC(=O)[O-].[Na+] [sodium butyrate, Sodium butyrate]
inhibition of HDAC activity on whole HT-29 cells ([2]; different concentrations, whole cells): significant (P<0.05) inhibition | inhibition of HDAC activity on HT-29 cell lysate [3]: significant (P<0.05) inhibition

C=CC[C@@H]1/C=C(\C)C[C@H](C)C[C@H](OC)[C@H]2O[C@@](O)(C(=O)C(=O)N3CCCC[C@H]3C(=O)O[C@H](/C(C)=C/[C@@H]3CC[C@@H](O)[C@H](OC)C3)[C@H](C)[C@@H](O)CC1=O)[C@H](C)C[C@@H]2OC [tacrolimus]
mean GVHD scores ([1]; compared to Group 3): trend was also observed | mean body weight over the course of the study [1, 4]: same trend was observed
